In patent publication US10543159B2, “Hair papilla cell activator” (Ezaki Glico Co., Ltd., priority 2014, dated 2020):

Experiments:
Wnt5a = test: Quantitative PCR gene expression in follicle dermal papilla cells: Wnt5a; assay type: cell-based, human; details: Example 3: 0.25% POs-Ca (R) or CaCl2 of equivalent calcium, DMEM, 37° C., 5 hours; Dunnett, n=6
Experimental: (1) 500 μl of a special medium in which 4×10^4 cells/ml of follicle dermal papilla cells were suspended was dispensed into a type I collagen-coated 24-well cell culture plate (Corning), and cultured at a cell density of 1.0×10^4 cells/cm^2 at 37° C. for 42 hours. […] Each of the solutions (a) to (c) was mixed with DMEM high glucose (Sigma, USA) at a ratio of 1:9.
(3) The medium was aspirated from each well obtained in (1), the well was washed by adding 1 ml of 1×PBS (137 mM NaCl, 8.1 mM Na2HPO4, 2.68 mM KCl, 1.47 mM KH2PO4 (pH 7.4); Wako Pure Chemical Industries, Ltd.), and aspirating the PBS, 500 μl of DMEM high glucose was added, and the cells were incubated in a CO2 incubator at 37° C. for 5 hours. […]
(4) The medium was removed from each well, and then mRNA was extracted using CellAmp Direct RNA Prep Kit for RT-PCR (Takara). The method was performed in accordance with the manual for the kit.
(5) 8 μl of the extracted mRNA solution (200 μl for each well) was used, and cDNA was obtained by the reverse transcription reaction at a scale of 40 μl, using PrimeScript RT Master Mix (Takara). The reaction conditions were as set forth in the manual for the kit.
(6) 0.5 μl of each of cDNA solutions diluted 2-fold with water, 1 μl of a solution containing 4 μM of each of primers 1 and 2 for each of the genes shown in Table 2, 5 μl of SYBR Premix Ex Taq II (Takara), and 3.5 μl of water were added, and quantitative PCR was performed on each of the genes. Using CFX96 Touch (BIO-RAD, USA), denaturation treatment at 95° C. for 30 seconds was performed, and then a two-step cycle at 95° C. for 5 seconds and at 62° C. for 20 seconds was performed for 65 cycles. Fluorescence intensity after each cycle was measured.
(7) Using PGK1 and GAPDH as reference genes, a comparative analysis of expression levels was performed with the analysis software (Bio-Rad CFX Manager 3.0) included in CFX96Touch. Relative expression levels were calculated under the default conditions of the software. […]

VEGFB = test: Quantitative PCR gene expression in follicle dermal papilla cells: VEGFB; assay type: cell-based, human; details: Example 3: 0.25% POs-Ca (R) or CaCl2 of equivalent calcium, DMEM, 37° C., 5 hours; Dunnett, n=6
Experimental: (§1) (1) 500 μl of a special medium in which 4×10^4 cells/ml of follicle dermal papilla cells were suspended was dispensed into a type I collagen-coated 24-well cell culture plate (Corning), and cultured at a cell density of 1.0×10^4 cells/cm^2 at 37° C. for 42 hours. (2) (a) Water (control), (b) a 2.5% (w/v) aqueous solution of POs-Ca (R), and (c) a 0.457% aqueous solution of CaCl2 (having an equivalent amount of calcium to that of (b)) were prepared. Each of the solutions (a) to (c) was mixed with DMEM high glucose (Sigma, USA) at a ratio of 1:9. […]
(§2) (6) 0.5 μl of each of cDNA solutions diluted 2-fold with water, 1 μl of a solution containing 4 μM of each of primers 1 and 2 for each of the genes shown in Table 2, 5 μl of SYBR Premix Ex Taq II (Takara), and 3.5 μl of water were added, and quantitative PCR was performed on each of the genes. […] Fluorescence intensity after each cycle was measured.
(§3) (8) The average value of calculated expression levels was determined for the six samples derived from the cells treated under the respective conditions, and defined as the expression level relative to the control.

[1] = tested on: human follicle dermal papilla cells; test: Follicle dermal papilla cell proliferation, Cell Counting Kit-F cell count (Example 2); assay type: cell-based; details: concentration series of Table 1A, 3 days
Experimental: A strain (Lot. 3092504.12) sold by PromoCell (Germany) was used as human follicle dermal papilla cells. The cells were cultured in a CO2 incubator at 37° C., using a special medium for follicle dermal papilla cells (PromoCell), unless otherwise indicated. Cell subculturing was performed as follows: cells were seeded at 5000 to 10000 cells/cm^2 in an uncoated dish, and when the cells reached subconfluent, they were treated with trypsin-EDTA (0.03%) and detached, and then re-seeded. […] The medium was replaced about once every 3 days.
1. The procedures (1) and (3) to (5) in Example 1 were performed in the same manner as described above. Solutions of the compositions shown in the following table were prepared in a concentration series starting from a 10% (w/v) aqueous solution of POs-Ca (R), a 12.9% (w/v) aqueous solution of G1P-Ca, a 1.84% (w/v) aqueous solution of CaCl2.2H2O, or a 10% (w/v) aqueous solution of POs-Na.
2. In place of the conditions ((6), (7) and (8)) in Example 1, Cell Counting Kit-F (Dojindo Molecular Technologies, Inc.) was added to each well in accordance with the manual, and the number of cells was counted.

fibronectin = test: Quantitative PCR gene expression in follicle dermal papilla cells: fibronectin; assay type: cell-based, human; details: Example 3: 0.25% POs-Ca (R) or CaCl2 of equivalent calcium, DMEM, 37° C., 5 hours; Dunnett, n=6
Experimental: as §1, §2, §3

CSPG4 = test: Quantitative PCR gene expression in follicle dermal papilla cells: CSPG4; assay type: cell-based, human; details: Example 3: 0.25% POs-Ca (R) or CaCl2 of equivalent calcium, DMEM, 37° C., 5 hours; Dunnett, n=6
Experimental: as §1, §2, §3

VEGF = test: Expression rate of VEGF among acidic saccharide salts, quantitative PCR (Example 6); assay type: cell-based, human; details: Example 6: solutions (b)-(h) of b288 mixed 1:9 with DMEM, GAPDH reference, mean of 4 PCR assays, dihydrate
Experimental: (1) 500 μl of a special medium in which 2×10^4 cells/ml of follicle dermal papilla cells were suspended was dispensed into a type I collagen-coated 24-well cell culture plate (Corning), and cultured at a cell density of 5×10^3 cells/cm^2 at 37° C. for 72 hours. […] Oji Cornstarch Co., Ltd.), (f) a 2.5% (w/v) aqueous solution of a phosphorylated oligosaccharide magnesium salt (POs-Mg; […] (3) Each of the solutions (a) to (c) was mixed with DMEM high glucose (Sigma, USA) at a ratio of 1:9. (4) Following the procedures (4) to (6) in Example 2, mRNA was extracted from the cells, cDNA was prepared, and then the expression levels of the VEGF, FGF-7, and GAPDH genes were quantified by quantitative PCR. (7) Using GAPDH as a reference gene, a comparative analysis of expression levels was performed with the analysis software (Bio-Rad CFX Manager 3.0) included in CFX96Touch. The expression levels were calculated under the default conditions of the software.

Compound: O.O.[Ca+2].[Cl-].[Cl-] [CaCl2, calcium chloride dihydrate]
- expression of Wnt5a gene compared to control (Wnt5a): significant increases in the expression of genes were not observed
- expression of VEGFB compared to control (VEGFB): significantly increased
- number of cells compared to that without addition [1]: not observed
- expression of fibronectin gene compared to control (fibronectin): significantly decreased
- expression of CSPG4 gene compared to control (CSPG4): significant increases in the expression of genes were not observed
- VEGF, relative values of the expression levels based on the control as 1 (VEGF): 0.80
- VEGF, relative values of the expression levels based on the control as 1 (VEGF; listed as calcium chloride): either comparable to or below the control
